Patent publication US20050233405A1, “Inhibitors of caspase-3-mediated cleavage of essential ventricular myosin light chain” (ProCorde GmbH, priority 2002, published 2005)
*: point of attachment. pNA = O=[N+]([O-])c1ccc(N*)cc1; AMC = Cc1cc(=O)oc2cc(N*)ccc12

Experiments:
[1] = biological target: T1, recombinant human caspase-3 (CPP32) (Homo sapiens, UniProt P42574); assay: Fluorimetric peptide substrate cleavage assay, caspase-3; format: biochemical; settings: fluorimetric in vitro assay
T1 construct: purified, active recombinant human caspase-3 (CPP32); purchased BD Biosciences Pharmingen, Heidelberg, Germany
T1 sequence (P42574 29-175 limits assumed): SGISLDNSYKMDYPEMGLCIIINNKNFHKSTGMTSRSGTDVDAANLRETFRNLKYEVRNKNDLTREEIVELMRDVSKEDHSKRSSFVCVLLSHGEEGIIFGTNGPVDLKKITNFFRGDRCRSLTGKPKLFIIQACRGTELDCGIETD
T1 sequence (P42574 176-277 limits assumed): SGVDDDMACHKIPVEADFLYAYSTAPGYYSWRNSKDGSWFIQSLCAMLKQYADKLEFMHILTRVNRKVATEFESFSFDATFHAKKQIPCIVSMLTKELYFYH
Protocol: The rate of caspase-3 enzyme activity could be measured by enzymatic cleavage and release of AMC from the Ac-DEVD-AMC caspase substrate (Biosyntan, Berlin, Germany). This parameter was measured as emission at 460 nm upon excitation at 380 nm using U.V. spectrofluorometry.
Ac-DFVE-AMC was synthesized by Biosyntan, Berlin, Germany, with a purity of 93.5%. The peptide lyophilised as trifluoracetic acid salt was reconstituted in DMSO to 100 mM. 5 μg of purified, active recombinant human caspase-3 (CPP32) from BD Biosciences Pharmingen, Heidelberg, Germany, were diluted in 100 μl 50 mM Tris, pH 8.0, with 100 mM NaCl, 50 mM imidazole.
The reaction buffer contained 20 mM HEPES, 100 mM NaCl, 10 mM DTT, 1 mM EDTA, 0.1 % (w/v) CHAPS, 10% sucrose, pH 7.2 and the indicated concentrations of Ac-DFVE-AMC. Caspase-3 was added to reaction mixture at a final concentration of 3 nM.
After preincubation for 10 min at 37° C., the released fluorogenic AMC was monitored every second minute for 20 min in a spectrofluorometer at an excitation wavelength of 380 nm and an emission wavelength of 460 nm.
Initial velocities and substrate concentrations were fit by non linear regression to the Michaelis-Menten equation. Lineweaver-Burk plots were calculated.

caspase-7 = biological target: T2, caspase-7 (Homo sapiens, UniProt P55210); assay: Fluorimetric peptide substrate cleavage assay, caspase-7; format: biochemical; settings: for cleavage of peptide substrate by caspase-7: fluorimetric in vitro assay
T2 sequence (P55210 24-198 limits assumed): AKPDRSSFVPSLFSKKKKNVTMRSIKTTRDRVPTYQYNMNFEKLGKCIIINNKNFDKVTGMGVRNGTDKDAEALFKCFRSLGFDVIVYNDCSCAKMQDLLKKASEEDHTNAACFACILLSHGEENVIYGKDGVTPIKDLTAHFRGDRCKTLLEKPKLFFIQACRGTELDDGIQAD
T2 sequence (P55210 207-303 limits assumed): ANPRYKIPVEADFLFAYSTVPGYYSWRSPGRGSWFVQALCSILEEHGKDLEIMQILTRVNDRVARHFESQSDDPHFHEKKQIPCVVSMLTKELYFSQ
Text: (§1) FIG. 8: Effect of different proteases—other caspases and calpain—on cleavage of the peptide substrate Ac-DFVE-AMC. The 1/KM-value for caspase-3 was normalized to 1, and 1/KM-values of other caspases/proteases are shown in relation to that value. […] The functional proteolytic activity of all proteases used was confirmed with the typical peptide substrate of each protease.
To this end, fluorimetric in vitro assays using the specific cleavage sites coupled to indicator dyes were established. Caspase-3 and the structurally almost identical caspase-7 (Wei et al., 2000) cleaved both substrates, DEVD and DFVE, with a highly reproducible Michaelis-Menten kinetic. […] We measured a KM-value for DEVD which compared well to existing literature data (Table 1), whereas the KM-value for DFVE was in the range of some other rare substrates of caspase-3 (Table 1). This differential substrate affinity allows to screen for specific inhibitors of vMLC1 cleavage, which would, however, not affect the cleavage of most other known substrates of caspase-3 and 7.
(§2) As p35 inhibits all effector caspases (subtypes 1,3,6,7,8 and 10; e.g., Zhou et al., Biochemistry 1998; 37:10757), our concern was whether the observed beneficial effects of p35 in heart failure were really due to inhibition of caspase-3 and of the structurally almost identical caspase-7. Especially, we sought to exclude that the decrease in vMLC1 cleavage in the presence of p35 was due to predominant inhibition of a different caspase, and to exclude that the cleavage of vMLC1 was induced by caspase-3 only indirectly acting via other effector caspases. Therefore, we tested all these enzymes for their capacity to cleave Ac-DFVE-AMC. […] However, the highly homologous caspase-7 cleaved the new substrate DFVE with almost 1 log scale lower affinity compared to caspase-3.

caspase-3 = biological target: T3, caspase-3 (Homo sapiens, UniProt P42574); settings: chromogenic peptide substrates; J Biol Chem. 1997 Apr 11; 272(15):9677-82; cited from earlier work
T3 sequence (P42574 29-175 limits assumed): T1 sequence (P42574 29-175 limits assumed)
T3 sequence (P42574 176-277 limits assumed): T1 sequence (P42574 176-277 limits assumed)

other caspases = assay: Ac-DFVE-AMC cleavage by other caspases; format: biochemical; settings: physiological substrate concentrations
Text: as §1, §2

calpain-I = biological target: T4, calpain-I (Homo sapiens, UniProt P07384); assay: Ac-DFVE-AMC cleavage by calpain-I; format: biochemical; settings: physiological substrate concentrations
T4 sequence (P07384 1-714): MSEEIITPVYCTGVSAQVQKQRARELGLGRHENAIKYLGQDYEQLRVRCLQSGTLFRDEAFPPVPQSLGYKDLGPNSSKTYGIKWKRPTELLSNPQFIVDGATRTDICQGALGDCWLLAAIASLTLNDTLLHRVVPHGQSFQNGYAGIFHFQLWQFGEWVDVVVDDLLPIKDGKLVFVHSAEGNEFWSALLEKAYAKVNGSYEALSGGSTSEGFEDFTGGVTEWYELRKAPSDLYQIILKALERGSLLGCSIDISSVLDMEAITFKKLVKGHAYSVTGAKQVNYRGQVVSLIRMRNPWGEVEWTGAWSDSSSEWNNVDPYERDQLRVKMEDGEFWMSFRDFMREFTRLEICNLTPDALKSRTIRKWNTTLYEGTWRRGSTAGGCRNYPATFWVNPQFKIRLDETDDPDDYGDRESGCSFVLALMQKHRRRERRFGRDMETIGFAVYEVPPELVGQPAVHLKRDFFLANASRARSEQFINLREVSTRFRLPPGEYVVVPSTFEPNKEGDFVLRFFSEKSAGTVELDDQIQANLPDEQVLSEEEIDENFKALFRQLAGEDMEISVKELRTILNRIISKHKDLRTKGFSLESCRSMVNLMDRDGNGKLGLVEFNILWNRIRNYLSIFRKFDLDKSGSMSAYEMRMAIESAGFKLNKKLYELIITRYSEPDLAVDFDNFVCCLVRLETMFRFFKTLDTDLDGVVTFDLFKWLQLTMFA
T4 sequence (P04632 1-268 partner): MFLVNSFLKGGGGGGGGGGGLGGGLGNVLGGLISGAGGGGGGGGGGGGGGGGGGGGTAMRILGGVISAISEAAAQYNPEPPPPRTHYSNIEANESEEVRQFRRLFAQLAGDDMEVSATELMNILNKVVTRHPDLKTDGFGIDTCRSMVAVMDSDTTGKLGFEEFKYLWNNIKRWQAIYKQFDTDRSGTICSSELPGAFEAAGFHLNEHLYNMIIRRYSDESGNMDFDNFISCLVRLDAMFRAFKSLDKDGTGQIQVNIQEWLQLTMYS
Text: as §1, §2

[2] = test system: caspase-3 activation in failing myocardium; settings: rabbit CHF, rapid ventricular pacing; Laugwitz et al., 2001; cited from earlier work

Molecule: Ac-DEVD-AMC
- cleavage of peptide substrate by caspase-3 [1]: cleaved
- cleavage of peptide substrate by caspase-7 (caspase-7): cleaved

Molecule: Ac-DEVD-pNA
- Km (caspase-3): 11 µM

Molecule: Ac-DFVE-{AMC}
- cleavage of peptide substrate by caspase-3 [1]: can specifically cleave
- cleavage of peptide substrate by caspase-7 (caspase-7): can specifically cleave
- affinity of caspase-7 for the substrate, lower compared to caspase-3 (caspase-7; relative to caspase-3): ~1 log scale
- cleavage of substrate by other caspases (other caspases): no cleavage was detectable
- cleavage of substrate by calpain-I (calpain-I): no cleavage was detectable

Molecule: Ac-DQMD-pNA
- Km (caspase-3): 44 µM

Molecule: Ac-VDVAD-pNA
- Km (caspase-3): 67 µM

Molecule: Ac-VEID-pNA
- Km (caspase-3): 250 µM

Molecule: Ac-VQVD-pNA
- Km (caspase-3): 510 µM

Molecule: Ac-YEVD-pNA
- Km (caspase-3): 370 µM

B1: p35: potent caspase inhibitor p35, given by adenovirus-mediated gene delivery (protein, UniProt P08160 1-299, looked up)
Early 35 kDa protein: MCVIFPVEIDVSQTIIRDCQVDKQTRELVYINKIMNTQLTKPVLMMFNISGPIRSVTRKNNNLRDRIKSKVDEQFDQLERDYSDQMDGFHDSIKYFKDEHYSVSCQNGSVLKSKFAKILKSHDYTDKKSIEAYEKYCLPKLVDERNDYYVAVCVLKPGFENGSNQVLSFEYNPIGNKVIVPFAHEINDTGLYEYDVVAYVDSVQFDGEQFEEFVQSLILPSSFKNSEKVLYYNEASKNKSMIYKALEFTTESSWGKSEKYNWKIFCNGFIYDKKSKVLYVKLHNVTSALNKNVILNTIK
modifications: adenovirus-delivered
- effect of in vivo transcoronary gene delivery in failing myocardium [2]: positive impact on sarcomeric organization and contractile performance
